Patent US6872745B2, “Antipicornaviral compounds and compositions, their pharmaceutical uses, and materials for their synthesis” (Agouron Pharmaceuticals, Inc., priority 2000, dated 2005)

What was measured:
[1] = molecular target: T1, rhinovirus 3C protease, serotype 14 (Human rhinovirus 14, UniProt P03303); assay: Inhibition of rhinovirus 3C protease (FRET assay, enzyme start); format: biochemical; conditions: HRV-14 3C protease, progress curves, read-out: Kobs/I
T1 construct: Recombinant rhinovirus 3C proteases; made in house
Description: Stock solutions (50 mM, in DMSO) of various compounds were prepared; dilutions were in the same solvent. Recombinant rhinovirus 3C proteases (see Birch et al., “Purification of recombinant human rhinovirus 14 3C protease expressed in Escherichia coli,” Protein Expr. Pur. (1995), vol. 6(5), 609-618) from serotypes 14, 16, and 2 were prepared by the following standard chromatographic procedures: (1) ion exchange using Q Sepharose Fast Flow from Pharmacia; (2) affinity chromatography using Affi-Gel Blue from Biorad; and (3) sizing using Sephadex G-100 from Pharmacia. Each assay sample contained 2% DMSO, 50 mM tris pH 7.6, 1 mM EDTA, a test compound at the indicated concentration, approximately 1 μM substrate, and 50-100 nM protease. The kobs/I values were obtained from reactions initiated by addition of enzyme rather than substrate. RVP activity was measured in the fluorescence resonance energy transfer assay. The substrate was (N-terminal) DABCYL-(Gly-Arg-Ala-Val-Phe-Gln-Gly-Pro-Val-Gly)-EDANS. In the uncleaved peptide, the EDANS fluorescence was quenched by the proximal DABCYL moiety. When the peptide was cleaved, the quenching was relieved, and activity was measured as an increase in fluorescence signal. The tabulated data in the column designated kobs/[I] were measured from progress curves in enzyme start experiments.

HRV-14 = assay: Antirhinoviral H1-HeLa cell culture assay (XTT cell protection); format: cell-based, human rhinovirus; conditions: Rhinovirus B, HRV14, H1-HeLa, HRV-14, H1-HeLa cells
Description: (§1) In this cell protection assay, the ability of compounds to protect cells against HRV infection was measured by the XTT dye reduction method, which is described in Weislow et al., J. Natl. Cancer Inst. (1989), vol. 81, 577-586. H1-HeLa cells were infected with HRV-14 at a multiplicity of infection (m.o.i.) of 0.13 (virus particles/cell) or mock-infected with medium only. Infected or mock-infected cells were resuspended at 8×10^5 cells per ml, and incubated with appropriate concentrations of the compounds to be tested. Two days later, XTT/PMS was added to test plates and the amount of formazan produced was quantified spectrophotometrically at 450/650 nm. The EC50 value was calculated as the concentration of compound that increased the percentage of formazan production in compound-treated, virus-infected cells to 50% of that produced by compound-free, mock-infected cells. The 50% cytotoxic dose (CC50) was calculated as the concentration of compound that decreased the percentage of formazan produced in compound-treated, mock-infected cells to 50% of that produced by compound-free, mock-infected cells. The therapeutic index (TI) was calculated by dividing the CC50 value by the EC50 value.
(§2) All strains of human rhinovirus (HRV) for use in this assay were purchased from American Type Culture Collection (ATCC), except for HRV serotype-14 (produced from the infectious cDNA clone constructed by Dr. Robert Rueckert, Institute for Molecular Virology, University of Wisconsin, Madison, Wis.). HRV stocks were propagated and viral assays were performed in H1-HeLa cells (ATCC). Cells were grown in minimal essential medium with 10% fetal bovine serum, available from Life Technologies (Gaithersburg, Md.).

[2] = Cytotoxicity in mock-infected cells of the antirhinoviral assay (XTT); format: cell-based; conditions: human, H1-HeLa cells, table line HRV-14
Description: as §1, §2

T1 sequence (P03303 1538-1719): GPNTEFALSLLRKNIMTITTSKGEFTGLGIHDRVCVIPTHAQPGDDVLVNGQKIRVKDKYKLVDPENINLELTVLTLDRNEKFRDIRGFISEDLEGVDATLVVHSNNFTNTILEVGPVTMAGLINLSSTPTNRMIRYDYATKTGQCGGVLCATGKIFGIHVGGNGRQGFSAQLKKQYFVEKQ

Row | SMILES | kinact/KI [1] | EC50 (HRV-14) | CC50 at 2 days [2]
1 | CCOC(=O)/C=C/[C@H](CCC(N)=O)NC(=O)[C@H](Cc1ccccc1)NC(=O)c1ccc(-c2ccccc2C(F)(F)F)[nH]1 [Compound 2, 6-Carbamoyl-4S-{3-phenyl-2S-[(5-(2-trifluoromethyl-phenyl)-1H-pyrrole-2-carbonyl)-amino]-propionylamino}-hex-2(trans)-enoic acid ethyl ester] | 32400 M⁻¹ s⁻¹ | 64 nM | > 10000 nM
2 | CCOC(=O)/C=C/[C@H](CCC(N)=O)NC(=O)[C@H](Cc1ccccc1)NC(=O)c1ccc(-c2cccc3ccccc23)[nH]1 [Compound 3] | 30800 M⁻¹ s⁻¹ | 109 nM | > 10000 nM
3 | CCOC(=O)/C=C/[C@H](CCC(N)=O)NC(=O)[C@H](Cc1ccccc1)NC(=O)c1ccc(-c2cncc3ccccc23)[nH]1 [Compound 5, 6-Carbamoyl-4S-{2S-[(5-isoquinolin-4-yl-1H-pyrrole-2-carbonyl)-amino]-3-phenyl-propionylamino}-hex-2(trans)-enoic acid ethyl ester] | 12700 M⁻¹ s⁻¹ | 1100 nM | > 10000 nM
4 | CCOC(=O)/C=C/[C@H](CCC(N)=O)NC(=O)[C@H](Cc1ccccc1)NC(=O)c1ccc(-c2cc(OC)ccc2OC)[nH]1 [Compound 7, 6-Carbamoyl-4S-(2S-{[5-(2,5-dimethoxy-phenyl)-1H-pyrrole-2-carbonyl]-amino}-3-phenyl-propionylamino)-hex-2-enoic acid ethyl ester] | 5200 M⁻¹ s⁻¹ | 300 nM | > 10000 nM
5 | CCOC(=O)/C=C/[C@H](CCC(N)=O)NC(=O)[C@H](Cc1ccccc1)NC(=O)c1ccc(-c2cccc3c2OCO3)[nH]1 [Compound 12] | 2700 M⁻¹ s⁻¹ | 1250 nM | > 10000 nM
6 | CCOC(=O)/C=C/[C@H](CCC(N)=O)NC(=O)[C@H](Cc1ccccc1)NC(=O)c1ccc(C(C)CC(F)(F)F)[nH]1 (stereo partly drawn) [Compound 13, 6-Carbamoyl-4S-(3-phenyl-2S-{[5-(3,3,3-trifluoro-1 methyl-propyl)-1H-pyrrole-2-carbonyl]-amino}-propionylamino)-hex-2(trans)-enoic acid ethyl ester] | 6570 M⁻¹ s⁻¹ | 2010 nM | > 10000 nM
7 | O=C1OCC/C1=C\[C@H](C[C@@H]1CCNC1=O)NC(=O)C(CC(=O)c1ccc(-c2ccccc2)[nH]1)Cc1ccc(F)cc1 (stereo partly drawn) [Compound 31, 2-(R,S)-(4-Fluorobenzyl)-4-oxo-N-[2-(2-oxo-dihydro-furan-3-ylidine)-1S-(2-oxo-pyrrolidin-3S-ylmethyl)-ethyl]-4-(5-phenyl-1H-pyrrol-2-yl)-butyramide] | 900 M⁻¹ s⁻¹ | – | –
8 | O=C1OCC/C1=C\[C@H](C[C@@H]1CCNC1=O)NC(=O)[C@H](CC(=O)c1ccc(-c2cccc3ccccc23)[nH]1)Cc1ccc(F)cc1 [Compound 32, 2-(R,S)-(4-Fluorobenzyl)-4-(5-naphthalen-1-yl-1H-pyrrol-2-yl)-4-oxo-N-[2-(2-oxo-dihydro-furan-3-ylidine)-1S-(2-oxo-pyrrolidin-3S-ylmethyl)-ethyl]-butyramide] | 8300 M⁻¹ s⁻¹ | – | –
9 | O=C1OCC/C1=C\[C@H](C[C@@H]1CCNC1=O)NC(=O)C(CC(=O)c1ccc[nH]1)Cc1ccc(F)cc1 (stereo partly drawn) [Compound 34, 2-(R,S)-(4-Fluorobenzyl)-4-oxo-N-[2-(2-oxo-dihydro-furan-3-ylidine)-1S-(2-oxo-pyrrolidin-3S-ylmethyl)-ethyl]-4-(1H-pyrrol-2-yl)-butyramide] | 520 M⁻¹ s⁻¹ | – | –
10 | CCOC(=O)/C=C/[C@H](C[C@@H]1CCNC1=O)NC(=O)[C@H](Cc1ccc(F)cc1)NC(=O)c1cc2ccccc2[nH]1 [Compound 42, Ethyl-3-{(Indole-2-carboxylic acid)-L-(4-F-Phe)-L-[(S)-Pyrrol-Ala]}-E-Propenoate] | 42 M⁻¹ s⁻¹ | – | –
11 | CCOC(=O)/C=C/[C@H](C[C@@H]1CCNC1=O)NC(=O)CCC(C)=O [Compound 43, 4S-(4-oxo-pentanoylamino)-5-(2-oxo-pyrrolidin-3S-yl)-pent-2-enoic acid ethyl ester] | 85 M⁻¹ s⁻¹ | – | –
12 | CCOC(=O)/C=C/[C@H](C[C@@H]1CCNC1=O)NC(=O)CCC(=O)c1ccccc1 [Compound 44, 4S-(4-oxo-4-phenyl-butyrylamino)-5-(2-oxo-pyrrolidin-3S-yl)-pent-2-enoic acid ethyl ester] | 1030 M⁻¹ s⁻¹ | – | –
13 | CCOC(=O)/C=C/[C@H](C[C@@H]1CCNC1=O)NC(=O)CCC(=O)c1cccc2ccccc12 [Compound 45, 4-S-(4-Naphthalen-1-yl-4-oxo-butyrylamino)-5-(2-oxo-pyrrolidin-3S-yl)-pent-2-enoic acid ethyl ester] | 629 M⁻¹ s⁻¹ | – | –

Now from value to compound, other results behind:

Row | kinact/KI [1] | EC50 (HRV-14) | SMILES | CC50 at 2 days [2]
14 | 20300 M⁻¹ s⁻¹ | 202 nM | CCOC(=O)/C=C/[C@H](CCC(N)=O)NC(=O)[C@H](Cc1ccccc1)NC(=O)c1ccc(-c2cccc(Cl)c2Cl)[nH]1 [Compound 1] | > 10000 nM
15 | 5860 M⁻¹ s⁻¹ | – | CCOC(=O)/C=C/[C@H](CCC(N)=O)NC(=O)[C@H](Cc1ccccc1)NC(=O)c1ccc(-c2cc(Cl)ccc2OC)[nH]1 [Compound 4, 6-Carbamoyl-4S-(2S-{[5-(5-chloro-2-methoxy-phenyl)-1H-pyrrole-2-carbonyl]amino}-3-phenyl-propionylamino)-hex-2(trans)-enoic acid ethyl ester] | –
16 | 2130 M⁻¹ s⁻¹ | 1420 nM | CCOC(=O)/C=C/[C@H](CCC(N)=O)NC(=O)[C@H](Cc1ccccc1)NC(=O)c1ccc(-c2cccc(C(C)C)c2)[nH]1 [Compound 6, 6-Carbamoyl-4S-(2S-{[5-(3-isopropyl-phenyl)-1H-pyrrole-2-carbonyl]-amino}-3-phenyl-propionylamino)-hex-2(trans)-enoic acid ethyl ester] | > 10000 nM
17 | 1300 M⁻¹ s⁻¹ | 4920 nM | CCOC(=O)/C=C/[C@H](CCC(N)=O)NC(=O)[C@H](Cc1ccccc1)NC(=O)c1ccc(-c2cccnc2)[nH]1 [Compound 8, 6-Carbamoyl-4S-{3-phenyl-2S-[(5-pyridin-3-yl-1H-pyrrole-2-carbonyl)-amino]-propionylamino}-hex-2(trans)-enoic acid ethyl ester] | > 10000 nM
18 | 12600 M⁻¹ s⁻¹ | – | CCOC(=O)/C=C/[C@H](CCC(N)=O)NC(=O)[C@H](Cc1ccccc1)NC(=O)c1ccc(-c2ccccc2C)[nH]1 [Compound 9, 6-Carbamoyl-4S-{3-phenyl-2S-[(5-o-tolyl-1H-pyrrole-2-carbonyl)-amino]-propionylamino}-hex-2(trans)-enoic acid ethyl ester] | –
19 | 2370 M⁻¹ s⁻¹ | – | CCOC(=O)/C=C/[C@H](CCC(N)=O)NC(=O)[C@H](Cc1ccccc1)NC(=O)c1ccc(-c2ccccc2)[nH]1 [Compound 10, 6-Carbamoyl-4S-{3-phenyl-2S-[(5-phenyl-1H-pyrrole-2-carbonyl)-amino]-propionylamino}-hex-2(trans)-enoic acid ethyl ester] | –
20 | 5000 M⁻¹ s⁻¹ | 646 nM | CCOC(=O)/C=C/[C@H](CCC(N)=O)NC(=O)[C@H](Cc1ccccc1)NC(=O)c1ccc(-c2ccccc2OC)[nH]1 [Compound 11, 6-Carbamoyl-4S-(2S-{[5-(2-methoxy-phenyl)-1H-pyrrole-2-carbonyl]-amino}-3-phenyl-propionylamino)-hex-2(trans)-enoic acid ethyl ester] | > 10000 nM
21 | 34600 M⁻¹ s⁻¹ | 534 nM | CCOC(=O)/C=C/[C@H](CCC(N)=O)NC(=O)[C@H](Cc1ccccc1)NC(=O)c1ccc(-c2ccccc2Br)[nH]1 [Compound 14, 4S-(2S-{[5-(2-Bromo-phenyl)-1H-pyrrole-2-carbonyl]-amino}-3-phenyl-propionylamino)-6-carbamoyl-hex-2(trans)-enoic acid ethyl ester] | > 10000 nM
22 | 1380 M⁻¹ s⁻¹ | – | CCOC(=O)/C=C/[C@H](CCC(N)=O)NC(=O)[C@H](Cc1ccccc1)NC(=O)c1ccc(-c2cc(C)no2)[nH]1 [Compound 21, 6-Carbamoyl-4S-(2S-{[5-(3-methyl-isoxazol-5-yl)-1H-pyrrole-2-carbonyl]-amino}-3-phenyl-propionylamino)-hex-2(trans)-enoic acid ethyl ester] | –
